Measurements from ChEMBL document CHEMBL1131500, “Novel biologically active nonpeptidic inhibitors of myristoylCoA:protein N-myristoyltransferase” (J Med Chem, 1998).
pEC50, pIC50, pKi: −log10 of the molar value. ≈ marks a conversion by molar mass, not a printed value.

How the values were obtained:
Candida albicans [1] = test: Compound was tested for the effective concentration against Candida albicans for 24 hr; format: functional, organism-based
[2] = biological target: T1, Glycylpeptide N-tetradecanoyltransferase (Candida albicans (strain SC5314 / ATCC MYA-2876) (Yeast), UniProt P30418); test: Compound was tested for the inhibition potency against Candida albicans N-myristoyltransferase (NMT) using peptide substrate GNAASARR-NH2 at its apparent Km and myristoylCoA at 1 uM
T1 sequence (P30418 whole entry): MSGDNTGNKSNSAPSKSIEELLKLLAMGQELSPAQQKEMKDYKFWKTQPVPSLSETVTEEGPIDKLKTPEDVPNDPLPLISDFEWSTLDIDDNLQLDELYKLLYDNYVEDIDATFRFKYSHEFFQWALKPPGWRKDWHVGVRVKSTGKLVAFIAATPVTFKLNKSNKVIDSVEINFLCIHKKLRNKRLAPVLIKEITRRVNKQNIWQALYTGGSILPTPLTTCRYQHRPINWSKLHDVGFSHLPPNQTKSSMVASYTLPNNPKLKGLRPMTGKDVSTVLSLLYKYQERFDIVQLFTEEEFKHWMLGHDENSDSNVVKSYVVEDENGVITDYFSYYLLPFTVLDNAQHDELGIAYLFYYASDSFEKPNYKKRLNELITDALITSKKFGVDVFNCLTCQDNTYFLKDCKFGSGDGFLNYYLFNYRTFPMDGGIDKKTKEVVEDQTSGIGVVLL

[3] = biological target: T2, Peptide N-myristoyltransferase (Homo sapiens, UniProt P30419+O60551); test: Compound was tested for the inhibition potency against human N-myristoyltransferase (NMT) using peptide substrate GNAASARR-NH2 at its apparent Km and myristoylCoA at 1 uM; format: protein assay
T2 sequence (P30419 whole entry): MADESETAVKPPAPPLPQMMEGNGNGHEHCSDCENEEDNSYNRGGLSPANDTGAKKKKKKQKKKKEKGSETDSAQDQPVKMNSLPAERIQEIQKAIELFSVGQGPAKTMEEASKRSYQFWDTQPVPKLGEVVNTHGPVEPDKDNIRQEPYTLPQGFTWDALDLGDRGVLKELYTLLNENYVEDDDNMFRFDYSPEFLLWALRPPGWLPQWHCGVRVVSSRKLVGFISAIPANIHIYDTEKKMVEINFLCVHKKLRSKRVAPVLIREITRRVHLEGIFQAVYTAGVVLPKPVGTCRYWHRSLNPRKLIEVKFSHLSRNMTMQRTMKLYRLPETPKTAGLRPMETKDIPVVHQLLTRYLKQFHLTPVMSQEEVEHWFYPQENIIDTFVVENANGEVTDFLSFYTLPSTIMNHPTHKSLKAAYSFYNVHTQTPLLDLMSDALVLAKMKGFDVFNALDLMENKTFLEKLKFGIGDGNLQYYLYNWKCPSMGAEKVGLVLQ
T2 sequence (O60551 whole entry): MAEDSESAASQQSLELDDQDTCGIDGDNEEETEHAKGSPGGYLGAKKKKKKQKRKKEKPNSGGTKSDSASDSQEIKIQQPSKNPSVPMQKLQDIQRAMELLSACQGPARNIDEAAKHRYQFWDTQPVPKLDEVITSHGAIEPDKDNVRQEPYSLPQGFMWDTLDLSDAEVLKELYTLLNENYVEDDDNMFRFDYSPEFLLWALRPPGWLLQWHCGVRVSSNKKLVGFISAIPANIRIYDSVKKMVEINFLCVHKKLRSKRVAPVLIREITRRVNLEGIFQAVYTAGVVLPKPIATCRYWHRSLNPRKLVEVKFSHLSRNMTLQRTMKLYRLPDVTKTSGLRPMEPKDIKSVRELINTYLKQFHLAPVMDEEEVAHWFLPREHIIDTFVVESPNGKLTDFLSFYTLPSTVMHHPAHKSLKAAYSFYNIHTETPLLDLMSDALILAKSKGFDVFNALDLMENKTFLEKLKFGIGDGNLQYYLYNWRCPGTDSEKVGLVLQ

[4] = biological target: T1, Glycylpeptide N-tetradecanoyltransferase; test: The Compound was tested for the inhibition potency against Candida albicans N-myristoyltransferase (NMT) and reported as apparent Ki
[5] = biological target: T1, Glycylpeptide N-tetradecanoyltransferase; test: compound was tested for the inhibition potency against Candida albicans N-myristoyltransferase (NMT) using peptide substrate GNAASARR-NH2 at its apparent Km and myristoylCoA at 1 uM
[6] = biological target: T2, Peptide N-myristoyltransferase; test: compound was tested for the inhibition potency against human N-myristoyltransferase (NMT) using peptide substrate GNAASARR-NH2 at its apparent Km and myristoylCoA at 1 uM; format: protein assay
Candida albicans [7] = test: the fungicidal activity against Candida albicans was reported; format: functional
Candida albicans [8] = test: compound was tested for the effective concentration against Candida albicans for 24 hr; format: functional, organism-based

Molecule	pEC50 (Candida albicans [1])	pIC50 [2]	IC50 [3] [µM]	pKi [4]	pIC50 [5]	IC50 [6] [µM]	MFC (Candida albicans [7]) [µM]	pEC50 (Candida albicans [8])
Cc1nccn1CCCCc1ccc(CC(=O)N[C@H](CO)Cc2ccc(OCCC3CCCCC3)c(CCCN)c2)cc1	4.25	4.53	62.3	–	–	–	–	–
H-ALYASKLS-NH2	–	–	–	4.82	–	–	–	–
Cc1nccn1CCCCc1ccc(CC(=O)N[C@@H](CO)Cc2ccc(OCCC3CCCCC3)c(CCCN)c2)cc1	–	–	–	–	4.76	6.5	250 (≈ 147 µg/mL)	4.11
Cc1nccn1CCCCc1ccc(CC(=O)N[C@H](CO)Cc2ccc(OCCC3CCCCC3)c(CCCCN)c2)cc1	–	–	–	–	4.70	64	150 (≈ 90.4 µg/mL)	4.31
